Assay results reported in patent US11497793B2, “Compositions and methods for treating glioblastoma” (TEL HASHOMER MEDICAL RESEARCH INFRASTRUCTURE AND SERVICES …, priority 2018, dated 2022).
The star is where a group is joined. Tos = Cc1ccc(S(=O)(=O)*)cc1; CH2Cl = ClC*

Columns and labels:
CNS-1 glioma cell line = assay: Glioma cell proliferation measured by XTT; assay type: cell-based, rat; settings: CNS-1 cells, 72 hours, TMZ 500 μM, SIXAC 10 μM, alone or combined
Protocol: The following experiment tested the effect of the chemotherapeutic drug temozolomide (“TMZ”) in combination with the peptide conjugate Tosyl-ATLDPR-chloromethylketone (tosyl-SEQ ID NO: 3-CMK) on the proliferation of glioma cells. The peptide conjugate contains 6 amino acids from the N-terminus of PAR-1: ATLDPR (SEQ ID NO: 3), and is denoted herein as “SIXAC”.
In particular, CNS-1 glioma cell line (rat) was treated with either TMZ (500 μM), SIXAC (10 μM) or a combination of TMZ (500 μM) and SIXAC (10 μM) for 72 hours. Proliferation was measured by means of XTT in comparison to non-treated cells (control).

PAR-1 = assay: Western blot of PAR-1 level in glioma cells; assay type: cell-based, rat; settings: CNS-1 cells, 24 h; TMZ 500 μM, SIXAC 10 μM, alone or combined; vs FCS-free medium with 0.2% DMSO
Protocol: (§1) More particularly, the expression of two proteins, PAR-1 and phosphorylated extracellular signal-regulated kinase (pERK), was examined in glioma cells incubated with TMZ, SIXAC or a combination of TMZ+SIXAC.
(§2) CNS-1 rat glioma cells were grown in Dulbecco's modified Eagle's medium (DMEM; Bet Haemek, Biological Industries, Israel) supplemented with 10% fetal bovine serum (Bet Haemek, Biological Industries, Israel) and 1% penicillin and streptomycin in a 5% CO2-humidified atmosphere.
(§3) CNS-1 cells were seeded and incubated for 24 h. Then the medium was replaced by FCS-free medium for additional 24 h. Next, the cells were treated for 24 h with SIXAC (10 μM), TMZ (500 μM), a combination of TMZ (500 μM) and SIXAC (10 μM) or a FCS-free medium (containing 0.2% DMSO) which was used as a control (n=4 for each treatment group). The cells were then washed with ice-cold PBS and lysed in RIPA buffer (containing in mM: 50 TRIS HCl pH 8, 150 NaCl, 1% NP-40, 0.5% sodium deoxycholate, and 0.1% SDS), a protease inhibitor cocktail (Merck Millipore 539134, 1:100), 0.1 mM sodium orthovanadate and 2 mM PMSF. The cells were scraped, collected and centrifuged (16,000 g×20 min) at 4° C. The supernatants were collected, and protein concentration was determined by means of a bicinchoninic acid (BCA) assay.

[1] = system: phosphorylated extracellular signal-regulated kinase (pERK); assay: Western blot of pERK level in glioma cells; assay type: cell-based, rat; settings: CNS-1 cells, 24 h; TMZ 500 μM, SIXAC 10 μM, alone or combined; vs FCS-free medium with 0.2% DMSO
Protocol: as §1, §2, §3

C6 rat glioma cells = assay: Scratch (wound healing) assay of glioma cell migration; assay type: cell-based; settings: 4 h of incubation, SIXAC 1 μM, TMZ 100 μM, alone or combined
Protocol: C6 rat glioma cells were grown in Dulbecco's modified Eagle's medium (DMEM; Bet Haemek, Biological Industries, Israel) supplemented with 10% fetal bovine serum (Bet Haemek, Biological Industries, Israel) and 1% penicillin and streptomycin in a 5% CO2-humidified atmosphere.
The effect of TMZ and SIXAC on the coordinated movement of C6 glioma cells was evaluated using a wound healing assay. The cells were seeded in 24-well plates at a density of 5×10^4 cells/well. Cells were cultured in FCS-free medium for 24 h. A wound was established by scraping using 10 μl pipette tip. Cells were washed twice with warm PBS and then fresh FCS-free medium was added, containing SIXAC (1 μM), TMZ (100 μM) or a combination of SIXAC and TMZ. Wells with FCS-free medium only or FCS-free medium+DMSO 0.2% were used as controls (marked as “control” and “control+DMSO”) Image acquisition of wound gap closure (%) was carried out following 4 h of incubation using a Nikon Eclipse microscope Images were analyzed using Fiji software.

CNS-1 brain tumor = assay: Survival in an animal model of GBM (CNS-1 cells injected into parietal cortex, intratumoral osmotic pump); assay type: in vivo; settings: rat GBM model; osmotic pump into tumor for 14 days; TMZ 2 mg/rat, SIXAC 6.9 μg/rat (20 μg/kg/day); monitored until Day 25
Protocol: CNS-1 cells ([…]) were injected using stereotactic methods into the parietal cortex of rats (n=20, 16 rats survived the surgery).
Five days later (Day 5) the brains of the rats that survived the surgery were examined by MRI and the tumors scored on a scale of 1-3. For each rat, a catheter was placed in the brain tumor and attached to an osmotic pump (Alzet®) releasing one of the following treatments ([…], for 14 days): TMZ 2 mg/rat (n=7), or TMZ 2 mg/rat and SIXAC 6.9 μg/rat (20 μg/kg/day) (n=7) (TMZ was dissolved in saline and 0.1M acetate buffer pH5) (50:50 v/v ratio).
The groups were monitored daily for survival until Day 25.

Molecule	cell proliferation compared to non-treated cells (control) (CNS-1 glioma cell line)	PAR1 expression (PAR-1)	pERK expression [1]	wound-closure percentage (C6 rat glioma cells)	Median survival (CNS-1 brain tumor) [days]
tosyl-Ala-Thr-Leu-Asp-Pro-Arg-chloromethylketone (Tos-ATLDPR-CH2Cl; SMILES Cc1ccc(S(=O)(=O)N[C@@H](C)C(=O)N[C@H](C(=O)N[C@@H](CC(C)C)C(=O)N[C@@H](CC(=O)O)C(=O)N2CCC[C@H]2C(=O)N[C@@H](CCCNC(=N)N)C(=O)CCl)[C@@H](C)O)cc1) [SIXAC, peptide conjugate containing 6 amino acids from the N-terminus of PAR-1 with tosyl and chloromethylketone moieties]	minor effect	did not cause any significant change	did not cause any significant change	significantly decrease	
Cn1nnc2c(C(N)=O)ncn2c1=O [TMZ, temozolomide, reference compound]	no significant effect				14
